# Data: patent publication US9321782B2, “Process for preparation of novel 42-O-(heteroalkoxyalkyl) rapamicin compounds with anti-proliferative properties” (MERIL LIFE SCIENCES PVT. LTD., priority 2010, dated 2016)
# How the values were obtained:
# [1] = Stability analysis (HPLC purity on storage) without BHT at various temperatures; type: physicochemical; details: without BHT
# Procedure: (§1) To check the purity of the 42-O-(heteroalkoxyalkyl) rapamycin compounds the following condition was followed by using High Performance Liquid Chromatography, Phenomenex Synergi Hydro-RP 80a (250×4.6 ) mm, 4 micron column. The mobile phase was 65:15:20 methanol:acetonitile:water mixture. The detector was set at 276 nm and the flow rate was adjusted to 1.5 mL/min. Column temperature was 40° C. 2.0 μg of 42-O-(heteroalkoxyalkyl) rapamycin compounds was injected onto the column in a volume of 5.0 μL methanol with run time of 50 min.
# The purity loss was higher at increased temperature, but there was no apparent change in the impurity profile. Table 2A presents the purity of various 42-O-(heteroalkoxyalkyl) rapamycin compounds at different time intervals and temperature conditions.
# [2] = Stability analysis (HPLC purity on storage) with various concentrations of BHT at 40° C.; type: physicochemical; details: sealed container
# Procedure: as §1
# The inventors have also conducted the stability study of various 42-O-(heteroalkoxyalkyl) rapamycin compounds as mentioned above using various BHT concentrations. The study was conducted at 40° C. temperature in sealed container for 8 weeks.
# 42-O-(heteroalkoxyalkyl) rapamycin compounds obtained as per procedure described in Example 1 are respectively added with anti-oxidant, namely Butylated Hydroxytoluene (or BHT), at a concentration of 0.1%, 0.2%, 0.5%, and 1.0% (w/w) based on 100% (w/w) of 42-O-(heteroalkoxyalkyl) rapamycin compounds in sealed container to study the stability at 40° C. temperature. […] The purity data with the addition of different amounts of anti-oxidant as added to 42-O-(tetrahydrofuran-3-yl) rapamycin compound, 42-O-(oxetan-3-yl) rapamycin compound and 42-O-(tetrahydropyran-3-yl) rapamycin compound checked at different time intervals are summarized in Table 2B as below mentioned.
smiles,measurement,setting,value
"COC1CC(C[C@H](C)[C@@H]2CC(=O)[C@H](C)/C=C(\C)C(O)[C@@H](OC)C(=O)[C@H](C)C[C@H](C)/C=C/C=C/C=C(\C)[C@@H](OC)C[C@@H]3CC[C@@H](C)[C@@](O)(O3)C(=O)C(=O)N3CCCC[C@H]3C(=O)O2)CCC1OC1CCCOC1 (stereo partly shown) [Merilimus-3, 42-O-(tetrahydropyran-3-yl) rapamycin]",Purity (%),"[1]; 5° C. (sealed), 00 weeks after synthesis",97.3%
same,Purity (%),"[1]; 5° C. (sealed), 02 weeks after synthesis",96.0%
same,Purity (%),"[1]; 5° C. (sealed), 04 weeks after synthesis",95.4%
same,Purity (%),"[1]; 5° C. (sealed), 08 weeks after synthesis",94.5%
same,Purity (%),"[1]; 5° C. (sealed), 12 weeks after synthesis",93.9%
same,Purity (%),"[1]; 25° C. (sealed), 00 weeks after synthesis",97.6%
same,Purity (%),"[1]; 25° C. (sealed), 02 weeks after synthesis",95.7%
same,Purity (%),"[1]; 25° C. (sealed), 04 weeks after synthesis",95.2%
same,Purity (%),"[1]; 25° C. (sealed), 08 weeks after synthesis",94.6%
same,Purity (%),"[1]; 25° C. (sealed), 12 weeks after synthesis",93.5%
same,Purity (%),"[1]; 25° C. (unsealed), 00 weeks after synthesis",97.0%
same,Purity (%),"[1]; 25° C. (unsealed), 02 weeks after synthesis",95.3%
same,Purity (%),"[1]; 25° C. (unsealed), 04 weeks after synthesis",94.5%
same,Purity (%),"[1]; 25° C. (unsealed), 08 weeks after synthesis",93.8%
same,Purity (%),"[1]; 25° C. (unsealed), 12 weeks after synthesis",93.1%
same,Purity (%),"[1]; 40° C. (sealed), 00 weeks after synthesis",97.5%
same,Purity (%),"[1]; 40° C. (sealed), 02 weeks after synthesis",94.4%
same,Purity (%),"[1]; 40° C. (sealed), 04 weeks after synthesis",93.7%
same,Purity (%),"[1]; 40° C. (sealed), 08 weeks after synthesis",92.3%
same,Purity (%),"[1]; 40° C. (sealed), 12 weeks after synthesis",91.6%
same,Purity (%),"[2]; BHT 0.0% (w/w), 0 week",97.5%
same,Purity (%),"[2]; BHT 0.0% (w/w), 2 weeks",94.4%
same,Purity (%),"[2]; BHT 0.0% (w/w), 4 weeks",93.7%
same,Purity (%),"[2]; BHT 0.0% (w/w), 8 weeks",92.3%
same,Purity (%),"[2]; BHT 0.1% (w/w), 0 week",97.5%
same,Purity (%),"[2]; BHT 0.1% (w/w), 2 weeks",95.9%
same,Purity (%),"[2]; BHT 0.1% (w/w), 4 weeks",94.3%
same,Purity (%),"[2]; BHT 0.1% (w/w), 8 weeks",93.6%
same,Purity (%),"[2]; BHT 0.2% (w/w), 0 week",97.6%
same,Purity (%),"[2]; BHT 0.2% (w/w), 2 weeks",96.3%
same,Purity (%),"[2]; BHT 0.2% (w/w), 4 weeks",95.6%
same,Purity (%),"[2]; BHT 0.2% (w/w), 8 weeks",94.1%
same,Purity (%),"[2]; BHT 0.5% (w/w), 0 week",97.3%
same,Purity (%),"[2]; BHT 0.5% (w/w), 2 weeks",96.5%
same,Purity (%),"[2]; BHT 0.5% (w/w), 4 weeks",95.9%
same,Purity (%),"[2]; BHT 0.5% (w/w), 8 weeks",94.5%
same,Purity (%),"[2]; BHT 1.0% (w/w), 0 week",97.4%
same,Purity (%),"[2]; BHT 1.0% (w/w), 2 weeks",96.6%
same,Purity (%),"[2]; BHT 1.0% (w/w), 4 weeks",95.6%
same,Purity (%),"[2]; BHT 1.0% (w/w), 8 weeks",94.9%
